Measurements as given in PMC6801448, “The Antioxidant and Antiproliferative Activities of 1,2,3-Triazolyl-L-Ascorbic Acid Derivatives” (International Journal of Molecular Sciences, 2019).
Like-named read-outs stand apart in the source and are kept apart here.

Assays:
[1] = test system: CFPAC-1 (ductal pancreatic adenocarcinoma); assay: MTT proliferation assay, CFPAC-1; format: cell-based; conditions: Homo sapiens, 72 h
Procedure: (§1) Human tumor cell lines HeLa (cervical carcinoma), SW620 (colorectal adenocarcinoma, metastatic), A549 (lung adenocarcinoma), MCF−7 (breast adenocarcinoma), CFPAC-1 (pancreatic adenocarcinoma, metastatic), HCT-116 (colorectal carcinoma), and HepG2 (hepatocellular carcinoma), and normal cell lines HFF-1 (foreskin fibroblasts) and WI-38 (immortalized human lung fibroblast), were from the US American Type Culture Collection (ATCC, Manassas, VA, USA). Cells were cultured in a liquid nutrient medium (Dulbecco’s Modified Eagle Medium, LONZA, Basel, Switzerland) supplemented with 10% fetal bovine serum (FBS, Gibco, Grand Island, NY, USA), 2 mM L-glutamine (GIBCO, Grand Island, NY, USA), 100 μg/mL penicillin, and 100 μg/mL streptomycin (LONZA, Basel, Switzerland), in an incubator (NÜVE, Ankara, Turkey), at a humid atmosphere with 5% CO2 at 37 °C. Trypsin/EDTA Solution (Lonza, Basel, Switzerland), was used for cell passaging and cell detachment.
(§2) Adherent cells were seeded on 96 well microtiter plates (Falcon, New York, NY, USA) at a seeding density of 5000 cells per well, added in 150 μL of cell suspension in a nutrient medium. 24 h after seeding, cells were treated with compound 4b–4g, 4i, 4k–4t, 4v, 7c–7g, and 7i–7q dilutions in the range of 0.01 μM to 100 μM. L-ascoric acid (Sigma Aldrich, Darmstadt, Germany) and Carboxyamidotriazole (Sigma Aldrich, Darmstadt, Germany) were used as control compounds. Incubation of the cells with the compounds were performed for 72 h in a 5% CO2, in humid atmosphere at 37 °C. After incubation, nutrient medium was removed and 40 μL of the MTT reagent ([…]-2,5-diphenyltetrazole bromide (Invitrogen, Carlsbad, CA, USA) was added to each well. 3 h after incubation, 160 μL of DMSO (VWR CHEMICALS, Radnor, PA, USA) were added to each well to dissolve the crystals of purple formazane. The absorbance was measured at 570 nm (TECAN SUNRISE Microtiter plate reader (Männedorf, Switzerland). The experimentally measured optical densities (OD) were converted to the PG (percentage of growth), using the formulas according to the protocol assumed by NIH (National Institute of Health). The IC50 values (concentration causing 50% cell growth inhibition) for each compound were calculated by regression analysis of the survival count curve of the concentrations of the tested compounds. The results were processed in Excel 2010 (Microsoft, Redmond, WA, USA).

WI-38 (lung fibroblasts) = assay: MTT proliferation assay, WI-38; format: cell-based; conditions: Homo sapiens, 72 h, normal lung fibroblasts
Procedure: as §1, §2

[2] = test system: SW620 (colorectal adenocarcinoma, metastatic); assay: MTT proliferation assay, SW620; format: cell-based; conditions: Homo sapiens, SW-620, 72 h
Procedure: as §1, §2

[3] = DPPH radical scavenging assay; format: biochemical
Procedure: Likewise, L-ASA, the 1,2,3-triazole L-ASA derivatives with free C2-OH and C3-OH groups were expected to be potent antioxidants. Therefore, they were tested as radical scavengers by reaction with the stable free radical 2,2-diphenyl-1-picrylhydrazyl (DPPH^•).
Antioxidant capacity of selected compounds was assessed by 2,2-diphenyl-1-picrylhydrazyl assay (DPPH, Sigma Aldrich, Darmstadt, Germany), in which the antioxidant activity of compounds is measured by the reaction between a stable radical of 1,1-diphenyl-2-picylhydrazil (DPPH^•) and a selected compound according to the manufacturer recommendations. Briefly, compounds 4b–4e, 4f–4h, 4k, 4l, 4o, 4p–4s, 4t, 4v, 7c–7f, 7i–7n, 7q, 7p, and 7o were tested at 0.06, 0.12, 0.18, 0.23, 0.25, and 0.28 mM. L-ascorbic acid was used as the reference compound. Absorbance was measured 5 and 10 min after incubation of the compounds with the DPPH reagent. The reduction of DPPH with selected compounds was monitored by measuring the absorbance at a wavelength of 517 nm on the monochromator (Infinite M200 PRO, TECAN, Männedorf, Switzerland).

[4] = test system: A549 (lung adenocarcinoma); assay: MTT proliferation assay, A549; format: cell-based; conditions: Homo sapiens, 72 h
Procedure: as §1, §2

[5] = test system: HCT-116 (colorectal carcinoma); assay: MTT proliferation assay, HCT-116; format: cell-based; conditions: Homo sapiens, 72 h
Procedure: as §1, §2

[6] = test system: HeLa (cervical carcinoma); assay: MTT proliferation assay, HeLa; format: cell-based; conditions: Homo sapiens, 72 h
Procedure: as §1, §2

[7] = test system: HepG2 (hepatocellular carcinoma); assay: MTT proliferation assay, HepG2; format: cell-based; conditions: Homo sapiens, 72 h
Procedure: as §1, §2

[8] = test system: MCF-7 (breast adenocarcinoma); assay: MTT proliferation assay, MCF-7; format: cell-based, Human; conditions: Homo sapiens, MCF7; 72 h, MTT
Procedure: as §1, §2

[9] = 5 min treatment, read-out: IC50 of DPPH• inhibition, Treatm. 5 min
[10] = 10 min treatment, read-out: IC50 of DPPH• inhibition, Treatm. 10 min

SMILES | IC50 [1] | IC50 (WI-38 (lung fibroblasts)) | melting point | IC50 [2] | IC50 [3, 9] | IC50 [3, 10] | IC50 [4] | IC50 [5] | IC50 [6] | IC50 [7] | IC50 [8]
O=C1O/C(=C\Cn2cc(CCO)nn2)C(O)=C1O [Compound 7q, 6-[4-(2-hydroxyethyl)-1,2,3-triazole-1-yl]-4,5-didehydro-5,6-dideoxy-L-ascorbic cid] | > 100 µM | > 100 µM | 172 to 173 °C | > 100 µM | 70 µM | 70 µM | > 100 µM | > 100 µM | > 100 µM | > 100 µM | > 100 µM
O=C1O/C(=C\Cn2cc(CCCCl)nn2)C(O)=C1O [Compound 7p, 6-[4-chloropropyl-1,2,3-triazole-1-yl]-4,5-didehydro-5,6-dideoxy-L-ascorbic acid] | > 100 µM | > 100 µM | 160 to 162 °C | > 100 µM | 200 µM | 200 µM | > 100 µM | > 100 µM | > 100 µM | > 100 µM | > 100 µM
O=c1[nH]cc(F)c(=O)[nH]1 [Compound 5-FU, 5-fluorouracil, reference compound] | 0.14 µM | 0.94 µM | – | 0.08 µM | – | – | 2.8 µM | – | 8.81 µM | 9.04 µM | 0.096 µM
O=C1O/C(=C\Cn2cc(C3CC3)nn2)C(O)=C1O [Compound 7l, 6-[4-cyclopropyl-1,2,3-triazole-1-yl]-4,5-didehydro-5,6-dideoxy-L-ascorbic acid] | > 100 µM | > 100 µM | 176 to 178 °C | > 100 µM | 200 ± 10 µM | 200 µM | > 100 µM | > 100 µM | > 100 µM | > 100 µM | > 100 µM
O=C1O/C(=C\Cn2cc(-c3ccccc3O)nn2)C(O)=C1O [Compound 7i, 4,5-didehydro-5,6-dideoxy-6-[4-(2-hydroxyphenyl)-1,2,3-triazole-1-yl]-L-ascorbic acid] | > 100 µM | > 100 µM | 167 to 169 °C | > 100 µM | 100 ± 50 µM | 100 ± 40 µM | > 100 µM | > 100 µM | > 100 µM | > 100 µM | > 100 µM
O=C1O/C(=C\Cn2cc(-c3cc(C(F)(F)F)cc(C(F)(F)F)c3)nn2)C(O)=C1O [Compound 7c, 4,5-didehydro-5,6-dideoxy-(4-(3,5-di-(trifluoromethyl)phenyl)-1,2,3-triazol-1-yl)-L-ascorbic acid] | > 100 µM | > 100 µM | ≥ 200 °C | > 100 µM | – | – | > 100 µM | > 100 µM | > 100 µM | > 100 µM | > 100 µM
CCCCCc1ccc(-c2cn(C/C=C3\OC(=O)C(O)=C3O)nn2)cc1 [Compound 7k, 4,5-didehydro-5,6-dideoxy-6-[4-(4-pentylphenyl)-1,2,3-triazole-1-yl]-L-ascorbic acid] | > 100 µM | > 100 µM | 230 to 232 °C | > 100 µM | – | – | > 100 µM | > 100 µM | > 100 µM | > 100 µM | > 100 µM
O=C1O/C(=C\Cn2cc(-c3cccc(O)c3)nn2)C(O)=C1O [Compound 7j, 4,5-didehydro-5,6-dideoxy-6-[4-(3-hydroxyphenyl)-1,2,3-triazole-1-yl]-L-ascorbic acid] | > 100 µM | > 100 µM | 155 to 157 °C | > 100 µM | – | – | > 100 µM | > 100 µM | > 100 µM | > 100 µM | > 100 µM
O=C1O/C(=C\Cn2cc(-c3ccc(Br)cc3)nn2)C(O)=C1O [Compound 7e, 6-[4-(4-bromophenyl)-1,2,3-triazole-1-yl]-4,5-didehydro-5,6-dideoxy-L-ascorbic acid] | > 100 µM | > 100 µM | 219 to 222 °C | > 100 µM | – | – | > 100 µM | > 100 µM | > 100 µM | > 100 µM | > 100 µM
